Reference: ChEMBL document CHEMBL5107958, “Phosphoramidate Prodrugs Continue to Deliver, The Journey of Remdesivir (GS-5734) from RSV to SARS-CoV-2” (ACS Med Chem Lett, 2022)

Tests used:
Measles morbillivirus [1] = experiment: Potency index, ratio of EC50 of GS-441524 to EC50 of test compound for antiviral activity against Measles virus infected in HMVEC cells assessed as reduction in viral replication; type: functional
SARS-CoV-2 [2] = experiment: Antiviral activity against SARS-CoV-2 infected in human A549 cells expressing hACE2 assessed as reduction in viral replication at MOI of 0.025 incubated for 48 hrs by luciferase based assay; type: functional, organism-based; details: Severe acute respiratory syndrome coronavirus 2, A549, 48 h
Nipah virus [3] = experiment: Antiviral activity against Nipah virus infected in African green monkey assessed as animal survival at 10 mg/kg, iv qd relative to control; type: functional; details: Henipavirus nipahense
SARS-CoV-2 [4] = experiment: Antiviral activity against SARS-CoV-2 infected in HAE cells assessed as reduction in viral replication at MOI of 0.5 incubated for 2 hrs followed by virus removal measured after 48 hrs by plaque assay; type: functional, organism-based; details: Severe acute respiratory syndrome coronavirus 2, HAE
SARS-CoV-2 [5] = experiment: Potency index, ratio of EC50 of GS-441524 to EC50 of test compound for antiviral activity against SARS-CoV-2 infected in human A549 cells expressing hACE2 assessed as reduction in viral replication at MOI of 0.025 incubated for 48 hrs by luciferase based assay; type: functional, Severe acute respiratory syndrome coronavirus 2
Nipah virus [6] = experiment: Antiviral activity against Nipah M1999 infected in human HeLa cells assessed as reduction in viral replication incubated for 48 to 144 hrs by reporter virus assay; type: functional, organism-based; details: Henipavirus nipahense
[7] = Prodrug conversion in Normal human bronchial epithelial cells assessed as half life of triphosphate metabolite; type: ADME, cell-based; details: normal human bronchial epithelial cell
SARS-CoV-2 [8] = experiment: Potency index, ratio of EC50 of GS-441524 to EC50 of test compound for antiviral activity against SARS-CoV-2 infected in human Calu-3 cells assessed as reduction in viral replication at MOI of 0.01 measured after 72 hrs by qRT-PCR analysis; type: functional, Severe acute respiratory syndrome coronavirus 2
Marburgvirus [9] = experiment: Antiviral activity against MARV Rec. Bat371-GFP infected in human Huh-7 cells assessed as reduction in viral replication incubated for 48 to 144 hrs by fluorescence based assay; type: functional, organism-based; details: Orthomarburgvirus
Ebolavirus [10] = experiment: Potency index, ratio of EC50 of GS-441524 to EC50 of test compound for antiviral activity against Ebola infected in human macrophages assessed as reduction in viral replication; type: functional, Macrophage
Ebolavirus [11] = experiment: Antiviral activity against Ebola infected in human HeLa cells assessed as reduction in viral replication; type: functional, organism-based; details: Orthoebolavirus
Nipah virus [12] = experiment: Antiviral activity against Nipah B2004 infected in human NCI-H358 cells assessed as reduction in viral replication incubated for 48 to 144 hrs by reporter virus assay; type: functional, organism-based; details: Henipavirus nipahense
Nipah virus [13] = experiment: Potency index, ratio of EC50 of GS-441524 to EC50 of test compound for antiviral activity against Nipah M1999 infected in human HeLa cells assessed as reduction in viral replication incubated for 48 to 144 hrs by reporter virus assay; type: functional, Henipavirus nipahense; details: time 48-144 hrs
[14] = Half life in Rhesus monkey at 10 mg/kg, iv; type: ADME, organism-based, Macaca mulatta; details: in vivo
SARS-CoV-2 [15] = experiment: Antiviral activity against SARS-CoV-2 infected in human Calu-3 cells assessed as reduction in viral replication at MOI of 0.01 measured after 72 hrs by qRT-PCR analysis; type: functional, organism-based; details: Severe acute respiratory syndrome coronavirus 2, Calu-3, 72 h
[16] = Prodrug conversion in human assessed as AUC (0 to last) of parent nucleoside compound at 2.5 mg/kg, iv; type: ADME, organism-based; parameters: time 0 - last, dose 2.5 mg/kg, route iv; details: in vivo
[17] = Prodrug conversion in ferret assessed as AUC (0 to last) of parent nucleoside compound at 10 mg/kg, iv; type: ADME, organism-based, Mustela putorius furo; parameters: time 0 - last, dose 10 mg/kg, route iv; details: in vivo
[18] = Prodrug conversion in human macrophages assessed as half life of triphosphate metabolite; type: ADME, cell-based; details: macrophage
Measles morbillivirus [19] = experiment: Antiviral activity against Measles virus infected in HMVEC cells assessed as reduction in viral replication; type: functional, organism-based
Marburgvirus [20] = experiment: Potency index, ratio of EC50 of GS-441524 to EC50 of test compound for antiviral activity against MARV Rec. Bat371-GFP infected in human Huh-7 cells assessed as reduction in viral replication incubated for 48 to 144 hrs by fluorescence based assay; type: functional; details: time 48-144 hrs
[21] = Clearance in human at 2.5 mg/kg, iv; type: ADME, organism-based; details: in vivo
SARS-CoV-2 [22] = experiment: Potency index, ratio of EC50 of GS-441524 to EC50 of test compound for antiviral activity against SARS-CoV-2 infected in human Caco-2 cells assessed as reduction in viral replication at MOI of 0.01 measured after 72 hrs by qRT-PCR analysis; type: functional, Severe acute respiratory syndrome coronavirus 2
[23] = Half life in human at 2.5 mg/kg, iv; type: ADME, organism-based; details: in vivo
[24] = Clearance in ferret at 10 mg/kg, iv; type: ADME, organism-based, Mustela putorius furo; details: in vivo
SARS-CoV [25] = experiment: Antiviral activity against SARS-CoV infected in HAE cells assessed as reduction in viral replication at MOI of 0.5 preincubated for 3 hrs followed by virus removal measured after 48 hrs by Hoechst 33258 staining based assay; type: functional, organism-based; details: Severe acute respiratory syndrome-related coronavirus
[26] = system: Middle East respiratory syndrome-related coronavirus; experiment: Antiviral activity against MERS-CoV infected in human Calu-3 2B4 cells assessed as reduction in viral replication at MOI of 0.08 infected for 1 hr followed by virus removal and subsequent addition of medium containing compound measured after 48 hrs post-infection by nLUC assay; type: functional, organism-based
Nipah virus [27] = experiment: Potency index, ratio of EC50 of GS-441524 to EC50 of test compound for antiviral activity against Nipah B2004 infected in human NCI-H358 cells assessed as reduction in viral replication incubated for 48 to 144 hrs by reporter virus assay; type: functional, Henipavirus nipahense; details: time 48-144 hrs
[28] = Stability of prodrug in mouse assessed as half life; type: ADME; details: in vivo
[29] = system: Middle East respiratory syndrome-related coronavirus; experiment: Antiviral activity against MERS-CoV infected in HAE cells assessed as reduction in viral replication at MOI of 0.5 incubated for 3 hrs followed by virus removal measured after 48 hrs by Hoechst 33258 staining based assay; type: functional, organism-based
[30] = AUC (0 to infinity) in human at 2.5 mg/kg, iv; type: ADME, organism-based; parameters: time infinity, dose 2.5 mg/kg, route iv; details: in vivo
[31] = Volume of distribution at steady state in human at 2.5 mg/kg, iv; type: ADME, organism-based; details: in vivo, read-out: Vdss
Ebolavirus [32] = experiment: Antiviral activity against Ebola infected in human macrophages assessed as reduction in viral replication; type: functional, organism-based; details: Orthoebolavirus, Macrophage
SARS-CoV-2 [33] = experiment: Antiviral activity against SARS-CoV-2 infected in human Calu-3 2B4 cells assessed as reduction in viral replication at MOI of 0.01 preincubated for 2 hrs followed by viral infection for 30 mins and subsequent virus removal and addition of medium containing compound measured after 72 hrs by RT-qPCR analysis; type: functional, organism-based; details: Severe acute respiratory syndrome coronavirus 2, Calu-3 2B4
SARS-CoV [34] = experiment: Potency index, ratio of EC50 of GS-441524 to EC50 of test compound for antiviral activity against SARS-CoV infected in HAE cells assessed as reduction in viral replication at MOI of 0.5 preincubated for 3 hrs followed by virus removal measured after 48 hrs by Hoechst 33258 staining based assay; type: functional, Severe acute respiratory syndrome-related coronavirus; details: time 51 hrs
Measles morbillivirus [35] = experiment: Antiviral activity against Measles Rec.rMVEZGFP(3) infected in human HeLa cells assessed as reduction in viral replication incubated for 48 to 144 hrs by fluorescence based assay; type: functional, organism-based

CCC(CC)OC(=O)[C@H](C)N[P@](=O)(OC[C@H]1O[C@@](C#N)(c2ccc3c(N)ncnn23)[C@H](O)[C@@H]1O)Oc1ccccc1
Ratio (Measles morbillivirus [1]): 13
EC50 (SARS-CoV-2 [2]): 0.115 µM
survival at 10 mg/kg (Nipah virus [3]): 100%
EC50 (SARS-CoV-2 [4]): 0.01 µM
Ratio (SARS-CoV-2 [5]): 7.6
EC50 (Nipah virus [6]): 0.066 µM
t1/2 [7]: 14 h
Ratio (SARS-CoV-2 [8]): 2.4
EC50 (Marburgvirus [9]): 0.014 µM
Ratio (Ebolavirus [10]): >232
EC50 (Ebolavirus [11]): 0.14 µM
EC50 (Nipah virus [12]): 0.032 µM
Ratio (Nipah virus [13]): 32
half-life [14]: 0.383 h
EC50 (SARS-CoV-2 [15]): 0.11 µM
AUClast [16]: 7.5 µM·h
AUClast [17]: 18.2 µM·h
t1/2 [18]: 14 h
EC50 (Measles morbillivirus [19]): 0.06 µM
Ratio (Marburgvirus [20]): 136
clearance [21]: 14.3 mL/min/kg
Ratio (SARS-CoV-2 [22]): 80
half-life [23]: 1 h
clearance [24]: 43.3 mL/min/kg
EC50 (SARS-CoV [25]): 0.069 µM
EC50 [26]: 0.069 µM
Ratio (Nipah virus [27]): 77
t1/2 [28]: 5 min
EC50 [29]: 0.074 µM
AUC(0-inf) [30]: 5 µM·h
Vd [31]: 1.22 L/kg
EC50 (Ebolavirus [32]): 0.086 µM
EC50 (SARS-CoV-2 [33]): 0.28 µM
Ratio (SARS-CoV [34]): 2.6
EC50 (Measles morbillivirus [35]): 0.037 µM
